# Values quoted from earlier work in patent US11804282B1, “Systems and methods for drug clustering” (nference, Inc., priority 2018, dated 2023).
# How the values were obtained:
# VEGFR2 protein = VEGFR2 protein (Homo sapiens, UniProt P35968); details: poly-protein screening (FIG. 4 inset)
# [1] = system: distinct purified proteins; details: proteome-wide screening data (FIG. 3 inset)
# VEGFR2 protein, sequence (P35968 20-1356): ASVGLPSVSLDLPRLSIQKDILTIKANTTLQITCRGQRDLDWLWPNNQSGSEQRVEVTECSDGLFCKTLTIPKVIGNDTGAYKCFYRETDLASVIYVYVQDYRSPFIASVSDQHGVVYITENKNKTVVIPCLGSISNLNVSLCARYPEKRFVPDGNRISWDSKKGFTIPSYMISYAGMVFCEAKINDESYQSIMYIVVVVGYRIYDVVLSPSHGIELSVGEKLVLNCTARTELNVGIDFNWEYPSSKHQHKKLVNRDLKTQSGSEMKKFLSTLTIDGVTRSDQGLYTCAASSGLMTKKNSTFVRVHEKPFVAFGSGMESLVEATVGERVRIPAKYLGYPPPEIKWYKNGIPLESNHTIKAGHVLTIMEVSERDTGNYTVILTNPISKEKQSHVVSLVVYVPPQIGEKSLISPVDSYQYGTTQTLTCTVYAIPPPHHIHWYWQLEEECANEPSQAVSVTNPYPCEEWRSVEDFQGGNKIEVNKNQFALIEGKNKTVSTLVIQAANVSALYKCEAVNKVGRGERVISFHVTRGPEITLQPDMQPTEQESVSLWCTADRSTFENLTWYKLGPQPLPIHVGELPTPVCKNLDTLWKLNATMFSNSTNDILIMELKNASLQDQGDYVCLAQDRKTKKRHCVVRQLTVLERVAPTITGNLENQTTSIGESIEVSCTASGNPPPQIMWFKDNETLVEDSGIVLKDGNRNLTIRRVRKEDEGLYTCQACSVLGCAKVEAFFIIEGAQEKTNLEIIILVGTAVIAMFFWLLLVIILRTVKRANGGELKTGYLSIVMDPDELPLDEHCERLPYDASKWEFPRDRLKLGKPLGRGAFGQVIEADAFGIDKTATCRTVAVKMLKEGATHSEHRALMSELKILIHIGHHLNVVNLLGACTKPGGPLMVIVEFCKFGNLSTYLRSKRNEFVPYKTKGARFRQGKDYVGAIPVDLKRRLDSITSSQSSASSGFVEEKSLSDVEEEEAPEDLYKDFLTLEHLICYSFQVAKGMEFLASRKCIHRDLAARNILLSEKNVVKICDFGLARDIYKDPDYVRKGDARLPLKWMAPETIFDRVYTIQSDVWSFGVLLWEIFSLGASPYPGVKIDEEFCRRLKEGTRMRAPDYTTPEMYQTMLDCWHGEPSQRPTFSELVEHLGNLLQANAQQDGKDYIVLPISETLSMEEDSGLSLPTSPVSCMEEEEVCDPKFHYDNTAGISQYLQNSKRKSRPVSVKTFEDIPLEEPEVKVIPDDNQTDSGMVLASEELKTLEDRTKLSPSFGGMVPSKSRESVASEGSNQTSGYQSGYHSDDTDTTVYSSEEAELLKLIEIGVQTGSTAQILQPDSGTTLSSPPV
structure (smiles),measurement,setting,value
Cc1ccc(NC(=O)c2ccc(CN3CCN(C)CC3)cc2)cc1Nc1nccc(-c2cccnc2)n1 [imatinib],affinity to the VEGFR2 protein,VEGFR2 protein,almost no affinity
same,number of distinct purified proteins bound,[1],less than 50 distinct purified proteins
